Measurements reported in patent publication US20200339691A1, “PROTEINACEOUS MOLECULES AND USES THEREFOR” (priority 2018, published 2020).
Where a SMILES comes first, the peptide text is derived from it. The star is where a group is joined. Myristoyl = CCCCCCCCCCCCCC(=O)*

Legend:
MDA-MB-231 cells = format: cell-based, human; conditions: 50 μM peptide, 48 hours, n = 1
Excerpt: (§1) Non-adherent cells were removed during the washing steps.

[1] = tested on: CD44^hiCD24^lo CSCs in MDA-MB-231 cells; experiment: FACS analysis of CD44^hiCD24^lo cancer stem cells in MDA-MB-231 cells treated with P1 analogues; format: cell-based, human; conditions: 50 μM peptide, 48 hours; for CD44^hiCD24^lo CSCs (%) / COI, Live Single CD44^hiCD24^lo CSCs (Cell Count): n = 1; for Average Inhibition of CSCs (%) / CD44^hiCD24^lo CSCs (%) Repeat 1 / CD44^hiCD24^lo CSCs (%) Repeat 2 / CD44^hiCD24^lo CSCs (%) Repeat 3: n = 3
Experimental: Analogues of P1 (Table 6) were designed and synthesized in accordance with the procedure of Example 5. The ability of these analogues to inhibit cancer stem cells was determined using FACS analysis on MDA-MB-231 cells, which constitutively contain approximately 90% CD44^hiCD24^lo cancer stem cells, treated with the peptides.
as §1
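For COI, Live Single Cells (Cell Count) in this document: live means Hoechst-negative events among single cells.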

CCCCCCCCCCCCCC(=O)N[C@@H](CC(C)C)C(=O)N[C@H](C(=O)N[C@@H](Cc1ccccc1)C(=O)N[C@@H](CCCCN)C(=O)N[C@@H](Cc1ccccc1)C(=O)N[C@@H](CCCNC(=N)N)C(=O)N[C@@H](CC(C)C)C(=O)N[C@@H](CCCNC(=N)N)C(=O)N[C@@H](CCCCN)C(=O)NCC(=O)N[C@@H](CCCNC(=N)N)C(=O)N[C@@H](CCSC)C(=O)N[C@@H](CCSC)C(=O)N[C@@H](CC(=O)O)C(=O)N[C@H](C(=O)N[C@@H](CCCCN)C(=O)N[C@@H](CCCCN)C(N)=O)C(C)C)[C@@H](C)O [Peptide 2853811, Myristoyl-LTFKFRLRKGRMMDVKK-NH2] (Myristoyl-LTFKFRLRKGRMMDVKK-NH2)
COI (Cell Count) (MDA-MB-231 cells): 79
COI, Live Single Cells (Cell Count) (MDA-MB-231 cells): 64
COI, Single (Cell Count) (MDA-MB-231 cells): 69
Total Cell Count (MDA-MB-231 cells): 1274
Inhibition of CSCs (%) Repeat 1 [1]: 57.93%
Inhibition of CSCs (%) Repeat 2 [1]: 62.10%
Inhibition of CSCs (%) Repeat 3 [1]: 67.22%
CD44^hiCD24^lo CSCs (%) [1]: 39.06%
COI, Live Single CD44^hiCD24^lo CSCs (Cell Count) [1]: 25
Average Inhibition of CSCs (%) [1]: 62.42%
CD44^hiCD24^lo CSCs (%) Repeat 1 [1]: 37.70%
CD44^hiCD24^lo CSCs (%) Repeat 2 [1]: 34.00%
CD44^hiCD24^lo CSCs (%) Repeat 3 [1]: 29.41%

CCCCCCCCCCCCCC(=O)N[C@@H](CC(C)C)C(=O)N[C@H](C(=O)N[C@@H](Cc1ccccc1)C(=O)N[C@@H](CC(C)C)C(=O)N[C@@H](Cc1ccccc1)C(=O)N[C@@H](CCCNC(=N)N)C(=O)N[C@@H](CC(C)C)C(=O)N[C@@H](CCCNC(=N)N)C(=O)N[C@@H](CCCCN)C(=O)NCC(=O)N[C@@H](CCCNC(=N)N)C(=O)N[C@@H](CCSC)C(=O)N[C@@H](CCSC)C(=O)N[C@@H](CC(=O)O)C(=O)N[C@H](C(=O)N[C@@H](CCCCN)C(=O)N[C@@H](CCCCN)C(N)=O)C(C)C)[C@@H](C)O [Peptide 2853812, Myristoyl-LTFLFRLRKGRMMDVKK-NH2] (Myristoyl-LTFLFRLRKGRMMDVKK-NH2)
COI (Cell Count) (MDA-MB-231 cells): 108
COI, Live Single Cells (Cell Count) (MDA-MB-231 cells): 84
COI, Single (Cell Count) (MDA-MB-231 cells): 87
Total Cell Count (MDA-MB-231 cells): 3794
Inhibition of CSCs (%) Repeat 1 [1]: 80.95%
Inhibition of CSCs (%) Repeat 2 [1]: 86.31%
Inhibition of CSCs (%) Repeat 3 [1]: 86.89%
CD44^hiCD24^lo CSCs (%) [1]: 16.67%
COI, Live Single CD44^hiCD24^lo CSCs (Cell Count) [1]: 14
Average Inhibition of CSCs (%) [1]: 84.72%
CD44^hiCD24^lo CSCs (%) Repeat 1 [1]: 17.07%
CD44^hiCD24^lo CSCs (%) Repeat 2 [1]: 12.28%
CD44^hiCD24^lo CSCs (%) Repeat 3 [1]: 11.76%

CCCCCCCCCCCCCC(=O)N[C@@H](CC(C)C)C(=O)N[C@H](C(=O)N[C@@H](Cc1ccccc1)C(=O)N[C@H](C(=O)N[C@@H](CCC(=O)O)C(=O)N[C@@H](CCCNC(=N)N)C(=O)N[C@@H](CC(C)C)C(=O)N[C@@H](CCCNC(=N)N)C(=O)N[C@@H](CCCCN)C(=O)NCC(=O)N[C@@H](CCCNC(=N)N)C(=O)N[C@@H](CCSC)C(=O)N[C@@H](CCSC)C(=O)N[C@@H](CC(=O)O)C(=O)N[C@H](C(=O)N[C@@H](CCCCN)C(=O)N[C@@H](CCCCN)C(N)=O)C(C)C)[C@@H](C)CC)[C@@H](C)O [Peptide 2853813, Myristoyl-LTFIERLRKGRMMDVKK-NH2] (Myristoyl-LTFIERLRKGRMMDVKK-NH2)
COI (Cell Count) (MDA-MB-231 cells): 55
COI, Live Single Cells (Cell Count) (MDA-MB-231 cells): 18
COI, Single (Cell Count) (MDA-MB-231 cells): 48
Total Cell Count (MDA-MB-231 cells): 867
Inhibition of CSCs (%) Repeat 1 [1]: 77.05%
Inhibition of CSCs (%) Repeat 2 [1]: 75.44%
Inhibition of CSCs (%) Repeat 3 [1]: 67.63%
CD44^hiCD24^lo CSCs (%) [1]: 27.78%
COI, Live Single CD44^hiCD24^lo CSCs (Cell Count) [1]: 5
Average Inhibition of CSCs (%) [1]: 73.37%
CD44^hiCD24^lo CSCs (%) Repeat 1 [1]: 20.57%
CD44^hiCD24^lo CSCs (%) Repeat 2 [1]: 22.04%
CD44^hiCD24^lo CSCs (%) Repeat 3 [1]: 29.05%
